Data on four compounds can be found in ChEMBL document CHEMBL3217609, “Discovery and characterization of novel potent PARP-1 inhibitors endowed with neuroprotective properties: From TIQ-A to [sequence]” (Medchemcomm, 2011).

Each structure is given as a SMILES string.

The target in data set [1] is T1, Poly [ADP-ribose] polymerase 1 (Homo sapiens, UniProt P09874). The data set can be described thus: Inhibition of human recombinant PARP1 by fluorescence based multiwell assay.
For data set [2], the target named is Poly [ADP-ribose] polymerase 2 (Mus musculus, UniProt O88554). Description: Inhibition of mouse recombinant PARP2 assessed as radioactivity incorporated from [adenine-2,8-3H]NAD into proteins by liquid scintillation spectrometry.
Chain of Poly [ADP-ribose] polymerase 2 (O88554 whole entry): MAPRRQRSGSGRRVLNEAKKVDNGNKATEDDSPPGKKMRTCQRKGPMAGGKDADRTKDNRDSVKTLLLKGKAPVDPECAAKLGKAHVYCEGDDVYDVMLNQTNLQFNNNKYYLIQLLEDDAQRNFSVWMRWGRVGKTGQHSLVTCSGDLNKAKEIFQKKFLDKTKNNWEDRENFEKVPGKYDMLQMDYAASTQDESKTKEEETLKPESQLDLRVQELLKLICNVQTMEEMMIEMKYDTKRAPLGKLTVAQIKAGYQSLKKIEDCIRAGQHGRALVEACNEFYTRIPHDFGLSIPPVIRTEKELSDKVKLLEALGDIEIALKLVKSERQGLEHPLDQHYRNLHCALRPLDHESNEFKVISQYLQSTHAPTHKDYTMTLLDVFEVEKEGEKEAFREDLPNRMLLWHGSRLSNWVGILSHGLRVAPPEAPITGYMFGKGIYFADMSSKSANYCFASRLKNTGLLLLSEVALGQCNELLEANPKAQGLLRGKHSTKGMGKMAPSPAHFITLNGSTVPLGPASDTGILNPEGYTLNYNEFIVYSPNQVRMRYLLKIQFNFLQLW
Data set [3] is described as follows: Kinetic aqueous solubility of the compound at pH 7.4 at 23 degC. In kind it is physicochemical. Particulars: buffer, read-out: Kinetic_solubility.
In data set [4] the target is T2, Poly [ADP-ribose] polymerase tankyrase-1 (Homo sapiens, UniProt O95271).
T2 sequence (O95271 whole entry): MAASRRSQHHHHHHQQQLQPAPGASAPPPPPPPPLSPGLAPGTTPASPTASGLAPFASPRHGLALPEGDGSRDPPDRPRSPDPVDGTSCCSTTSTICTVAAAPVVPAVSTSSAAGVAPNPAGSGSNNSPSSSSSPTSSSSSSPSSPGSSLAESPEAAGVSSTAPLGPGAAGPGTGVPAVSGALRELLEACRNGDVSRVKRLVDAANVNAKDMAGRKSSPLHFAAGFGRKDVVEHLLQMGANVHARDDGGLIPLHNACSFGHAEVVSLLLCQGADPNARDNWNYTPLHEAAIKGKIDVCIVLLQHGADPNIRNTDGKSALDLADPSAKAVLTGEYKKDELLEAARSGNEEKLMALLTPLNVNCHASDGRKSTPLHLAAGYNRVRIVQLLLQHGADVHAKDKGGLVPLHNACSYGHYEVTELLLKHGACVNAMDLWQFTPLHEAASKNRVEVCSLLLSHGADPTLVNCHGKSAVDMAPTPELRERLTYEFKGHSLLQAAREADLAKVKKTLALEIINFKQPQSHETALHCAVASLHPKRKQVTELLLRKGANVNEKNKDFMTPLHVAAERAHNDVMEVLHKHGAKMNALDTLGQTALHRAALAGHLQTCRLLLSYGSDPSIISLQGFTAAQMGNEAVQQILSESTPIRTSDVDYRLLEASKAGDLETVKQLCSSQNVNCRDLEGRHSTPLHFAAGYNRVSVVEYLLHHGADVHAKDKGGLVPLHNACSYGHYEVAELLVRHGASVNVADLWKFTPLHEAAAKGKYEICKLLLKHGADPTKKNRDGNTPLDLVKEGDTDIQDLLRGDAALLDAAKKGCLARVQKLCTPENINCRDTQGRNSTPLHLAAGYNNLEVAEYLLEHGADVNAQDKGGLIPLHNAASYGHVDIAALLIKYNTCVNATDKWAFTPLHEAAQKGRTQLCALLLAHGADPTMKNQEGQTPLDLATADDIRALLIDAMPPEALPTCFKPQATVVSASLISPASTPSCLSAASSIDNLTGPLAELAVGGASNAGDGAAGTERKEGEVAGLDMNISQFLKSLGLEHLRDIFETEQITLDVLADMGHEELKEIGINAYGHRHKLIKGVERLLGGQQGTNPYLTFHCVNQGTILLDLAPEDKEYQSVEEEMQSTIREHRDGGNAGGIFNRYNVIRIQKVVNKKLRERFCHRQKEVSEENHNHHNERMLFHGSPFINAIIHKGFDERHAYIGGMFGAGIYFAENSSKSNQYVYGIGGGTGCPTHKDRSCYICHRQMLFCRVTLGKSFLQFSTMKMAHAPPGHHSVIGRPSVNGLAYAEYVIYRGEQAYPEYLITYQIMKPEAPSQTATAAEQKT
Description: Inhibition of tankyrase-1 function in human HeLa cells. It counts as cell-based.

Data set [5] is described as follows: Clearance in rat hepatocytes assessed per 10^6 cells. In kind it is ADME, cell-based, Hepatocyte. Particulars: read-out: CLH.
A short description of data set [6]: Clearance in human hepatocytes assessed per 10^6 cells. It counts as ADME, cell-based, Hepatocyte. The following applies: read-out: CLH.
For data set [7], the system named is Rattus norvegicus. The data set can be described thus: Clearance in Sprague-Dawley rat at 10 mg/kg, iv. In kind it is ADME, organism-based. Also noted: dose 10 mg/kg, route intravenous. Particulars: in vivo.
Data set [8] can be described thus: Volume of distribution in Sprague-Dawley rat at 10 mg/kg, iv. It counts as ADME, organism-based. Also noted: dose 10 mg/kg, route intravenous. Particulars: in vivo.
Data set [9] is described as follows: AUC (0 to infinity) in Sprague-Dawley rat at 10 mg/kg, iv. On the set-up: time infinity, dose 10 mg/kg, route intravenous. Particulars: plasma. It counts as ADME, organism-based.
A short description of data set [10]: Half life in Sprague-Dawley rat at 10 mg/kg, iv. In kind it is ADME, organism-based. Also noted: dose 10 mg/kg, route intravenous. The following applies: in vivo.
The nature of data set [11]: Ratio of drug level in brain to plasma in Sprague-Dawley rat at 10 mg/kg, iv. It counts as ADME, organism-based. On the set-up: dose 10 mg/kg, route intravenous. The following applies: read-out: BPR.
The nature of data set [12]: Cmax in Sprague-Dawley rat brain at 10 mg/kg, iv. On the set-up: dose 10 mg/kg, route intravenous. In kind it is ADME, organism-based.
The nature of data set [13]: Fraction unbound in Sprague-Dawley rat brain at 10 mg/kg, iv. On the set-up: dose 10 mg/kg, route intravenous. It counts as ADME, organism-based.
The subject of data set [14] is Brain. The data set can be described thus: Free drug level in Sprague-Dawley rat brain at 10 mg/kg, iv. In kind it is ADME, organism-based. On the set-up: dose 10 mg/kg, route intravenous. Particulars: in vivo.
The target of data set [15] is hERG (KCNH2) (Homo sapiens, UniProt Q12809). The data set can be described thus: Inhibition of human ERG at 10 uM.
Chain of hERG (KCNH2) (Q12809 whole entry): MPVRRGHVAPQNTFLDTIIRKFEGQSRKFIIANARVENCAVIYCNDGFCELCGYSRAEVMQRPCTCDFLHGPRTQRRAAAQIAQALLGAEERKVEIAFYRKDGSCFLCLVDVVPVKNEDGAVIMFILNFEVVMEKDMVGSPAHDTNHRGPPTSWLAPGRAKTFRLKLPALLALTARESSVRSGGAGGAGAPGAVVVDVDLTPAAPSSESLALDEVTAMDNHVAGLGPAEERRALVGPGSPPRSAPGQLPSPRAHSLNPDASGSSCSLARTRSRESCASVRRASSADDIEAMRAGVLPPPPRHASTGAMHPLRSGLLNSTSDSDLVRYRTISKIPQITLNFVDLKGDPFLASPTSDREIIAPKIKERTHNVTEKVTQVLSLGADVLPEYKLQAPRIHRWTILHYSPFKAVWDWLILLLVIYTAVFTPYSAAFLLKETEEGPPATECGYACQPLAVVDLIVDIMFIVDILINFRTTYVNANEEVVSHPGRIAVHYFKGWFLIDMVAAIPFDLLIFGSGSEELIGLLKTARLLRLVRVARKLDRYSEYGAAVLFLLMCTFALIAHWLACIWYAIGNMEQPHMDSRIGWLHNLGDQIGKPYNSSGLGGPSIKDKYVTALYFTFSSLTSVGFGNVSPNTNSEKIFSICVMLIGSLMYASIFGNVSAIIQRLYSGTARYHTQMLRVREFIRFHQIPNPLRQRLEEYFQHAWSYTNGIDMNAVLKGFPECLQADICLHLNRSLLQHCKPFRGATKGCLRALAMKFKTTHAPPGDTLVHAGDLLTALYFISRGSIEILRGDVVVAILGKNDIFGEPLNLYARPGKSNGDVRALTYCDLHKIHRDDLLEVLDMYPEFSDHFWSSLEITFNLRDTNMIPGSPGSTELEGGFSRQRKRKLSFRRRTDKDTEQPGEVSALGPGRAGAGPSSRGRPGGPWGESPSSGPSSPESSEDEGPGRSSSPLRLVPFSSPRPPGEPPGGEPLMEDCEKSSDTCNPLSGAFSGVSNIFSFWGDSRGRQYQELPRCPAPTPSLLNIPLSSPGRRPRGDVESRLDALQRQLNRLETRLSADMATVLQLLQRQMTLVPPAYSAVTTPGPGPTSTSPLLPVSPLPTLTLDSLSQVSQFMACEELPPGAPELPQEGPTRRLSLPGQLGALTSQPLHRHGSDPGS
Data set [16] concerns the target T1, Poly [ADP-ribose] polymerase 1. The data set can be described thus: Inhibition of human PARP1 in HEK293 cells assessed as prevention of in MNNG-induced ATP depletion. It counts as cell-based.
The test system of data set [17] is Cortical neurone. The data set can be described thus: Neuroprotective activity in mouse mixed cortical cells assessed as reduction in oxygen-glucose deprivation-induced LDH release. It counts as functional, cell-based. For orientation: Release of lactate dehydrogenase indicates damage to the cell membrane.
The subject of data set [18] is Rattus norvegicus. The data set can be described thus: Neuroprotective activity in transient middle cerebral artery occlusion Sprague-Dawley rat model assessed as reduction in brain infarct volume at 0.1 mg/kg, ip 3 times, starting 4 hrs after occlusion relative to vehicle treated control. In kind it is functional. The following applies: route intraperitoneal.
The subject of data set [19] is Rattus norvegicus. The data set can be described thus: Neuroprotective activity in transient middle cerebral artery occlusion Sprague-Dawley rat model assessed as reduction in brain infarct volume at 1 mg/kg, ip 3 times, starting 4 hrs after occlusion relative to vehicle treated control. In kind it is functional. The following applies: route intraperitoneal.
Data set [20] deals with Rattus norvegicus. The data set can be described thus: Neuroprotective activity in transient middle cerebral artery occlusion Sprague-Dawley rat model assessed as reduction in brain infarct volume at 10 mg/kg, ip 3 times, starting 4 hrs after occlusion relative to vehicle treated control. In kind it is functional. Particulars: route intraperitoneal.
Data set [21] relates to Rattus norvegicus. Description: Neuroprotective activity in permanent middle cerebral artery occlusion Sprague-Dawley rat model assessed as reduction in brain infarct volume at 1 mg/kg, iv 3 times at 30 mins, 3.5 hrs and 6 hrs after occlusion relative to vehicle treated control. In kind it is functional.
Data set [22] can be described thus: Permeability of the compound by PAMPA. Particulars: read-out: permeability. It counts as physicochemical.
The target of data set [23] is Cytochrome P450 2D6 (Homo sapiens, UniProt P10635). The data set can be described thus: Inhibition of CYP2D6 (unknown origin). It counts as ADME.
Chain of Cytochrome P450 2D6 (P10635 whole entry): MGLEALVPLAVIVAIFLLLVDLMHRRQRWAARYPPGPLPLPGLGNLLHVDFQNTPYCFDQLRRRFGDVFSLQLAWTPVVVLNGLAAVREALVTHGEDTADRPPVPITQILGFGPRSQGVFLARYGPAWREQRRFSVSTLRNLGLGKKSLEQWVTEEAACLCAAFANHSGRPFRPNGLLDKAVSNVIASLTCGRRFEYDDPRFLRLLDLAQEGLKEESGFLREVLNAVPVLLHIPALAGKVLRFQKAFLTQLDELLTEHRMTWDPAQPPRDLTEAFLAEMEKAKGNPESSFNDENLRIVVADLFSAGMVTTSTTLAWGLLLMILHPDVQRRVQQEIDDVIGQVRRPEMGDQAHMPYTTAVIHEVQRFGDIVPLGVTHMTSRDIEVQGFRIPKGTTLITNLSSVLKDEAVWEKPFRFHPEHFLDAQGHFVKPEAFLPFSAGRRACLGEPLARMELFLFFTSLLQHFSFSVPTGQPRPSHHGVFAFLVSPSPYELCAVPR
Data set [24] is described as follows: Half life in rat liver microsomes. It counts as ADME. (In general: Liver microsomes are vesicles of endoplasmic reticulum, rich in cytochrome P450 enzymes.)
The nature of data set [25]: Half life in human liver microsomes. In kind it is ADME.

T1 sequence (P09874 whole entry): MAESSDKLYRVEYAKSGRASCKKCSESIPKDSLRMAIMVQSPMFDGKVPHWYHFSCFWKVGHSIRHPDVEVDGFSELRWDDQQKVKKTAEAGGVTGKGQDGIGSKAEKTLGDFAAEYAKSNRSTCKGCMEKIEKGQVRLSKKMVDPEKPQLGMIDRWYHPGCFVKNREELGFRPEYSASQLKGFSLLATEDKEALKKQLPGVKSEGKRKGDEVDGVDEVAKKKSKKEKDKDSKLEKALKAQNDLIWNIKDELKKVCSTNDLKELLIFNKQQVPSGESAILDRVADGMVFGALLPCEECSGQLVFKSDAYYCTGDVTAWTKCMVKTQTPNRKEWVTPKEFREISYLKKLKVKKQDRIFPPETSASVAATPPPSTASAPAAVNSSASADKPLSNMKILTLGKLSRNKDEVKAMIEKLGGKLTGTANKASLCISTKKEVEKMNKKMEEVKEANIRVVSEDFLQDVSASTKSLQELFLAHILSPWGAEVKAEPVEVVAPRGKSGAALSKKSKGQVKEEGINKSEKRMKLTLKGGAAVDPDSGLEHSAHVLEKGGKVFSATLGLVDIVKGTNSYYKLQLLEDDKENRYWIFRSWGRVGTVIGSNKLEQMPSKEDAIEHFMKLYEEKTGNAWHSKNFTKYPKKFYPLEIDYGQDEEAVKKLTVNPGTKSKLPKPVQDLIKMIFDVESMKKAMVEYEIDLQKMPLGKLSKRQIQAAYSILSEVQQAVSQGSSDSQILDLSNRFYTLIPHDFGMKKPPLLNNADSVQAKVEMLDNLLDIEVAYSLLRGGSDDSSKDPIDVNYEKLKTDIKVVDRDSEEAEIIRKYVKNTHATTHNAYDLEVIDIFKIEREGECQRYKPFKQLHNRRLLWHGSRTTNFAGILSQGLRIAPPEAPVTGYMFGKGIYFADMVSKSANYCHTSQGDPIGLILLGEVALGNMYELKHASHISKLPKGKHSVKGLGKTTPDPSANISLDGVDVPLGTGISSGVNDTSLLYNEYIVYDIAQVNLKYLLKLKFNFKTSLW

As usually defined, the IC50 is the concentration that gives 50% inhibition. For `O=c1[nH]c2sccc2c2ccccc12`, the IC50 came out at 0.9 µM in data set [1] and 0.6 µM in data set [2]. In addition, in data set [3], the solubility kinetic was below 0.1 mg/mL.

As for `CN(C)Cc1cc2c([nH]c(=O)c3ccccc32)s1`, the IC50 is 0.18 µM in data set [1], 0.3 µM in data set [2] and above 100 µM in [4].

For orientation: clearance means the rate of elimination divided by the concentration. The Vd is the apparent volume that relates the amount in the body to the concentration in plasma or blood. Higher therefore signals wide distribution into tissue. A word on the AUC(0-inf): it is total exposure, with the tail of the curve extrapolated. Broadly, the half-life is the time in which the quantity being followed falls by half. A high value points to slow loss. For orientation: Cmax means the peak of the concentration-time curve. In general, fraction unbound refers to free concentration divided by total concentration. A low value points to extensive binding. As a reminder, the inhibition is the share of the control response that was lost under treatment. The term EC50 denotes the concentration needed to bring the measured effect to its halfway point. One may read the inhibition in vivo as the share of the control response that was lost under treatment. Turning to `Br.CN(C)Cc1cc2c([nH]c(=O)c3cccc(O)c32)s1`, the hepatocyte CLint in data set [5] was 26.4 µL/min/1e6 cells; in data set [6], 22.2 µL/min/1e6 cells. For the same compound, the clearance in data set [7] came out at 4.14 L/h/kg. Also, in data set [8], the Vd turned out to be 2.1 L/kg. Besides, the AUC(0-inf) in data set [9] was found to be 1.68 µg·h/mL. For the same compound, the half-life was 48 min in [10], 3 min in [24] and 30 min in data set [25]. Also, the Kp in data set [11] worked out at 0.26. The same compound displayed a Cmax in [12] of 0.678 µM. Further, the free fraction (fraction unbound) in [13] came out at 0.13. In data set [14], the “Drug uptake(free)” value is listed as 87 nM. Also, the inhibition at 10 µM in data set [15] worked out at 14%. Moreover, the IC50 in data set [1] was 0.029 µM; in data set [2], 0.038 µM; in data set [4], above 100 µM; in [23], 170 µM. Moreover, the figures for the concentration giving a half-maximal response (EC50) in [16] and in [17] were 0.014 µM and 0.3 µM, respectively. In addition, the solubility kinetic in data set [3] worked out at 0.07 mg/mL. Moreover, the inhibition in vivo at 0.1 mg/kg in data set [18] amounted to 17.5%. Further, the inhibition in vivo at 1 mg/kg in data set [19] is 55%; in data set [21], 42%. In addition, in data set [20], the inhibition in vivo at 10 mg/kg was determined as 62%. Further, the Papp in data set [22] is 46 nm/s.

In the case of `O=c1[nH]c2ccccc2c2ccccc12`, the EC50 came out at 0.945 µM in [16] and 2.37 µM in data set [17].
